Drawing on PubChem BioAssay (NCI), this text covers TGI for ten molecules.

Common to all, as to assay: NCI anticancer screen, dose series, 48 h
Test [1] concerns T-47D breast.
The subject of test [2] is BT-549 breast.
In test [3] the test system is RXF 393 renal.
In test [4] the test system is MOLT-4 leukemia.
Test [5] has as its system ACHN renal.
For test [6], the system named is A498 renal.
The test system of test [7] is NCI-H226 lung.
Test [8] deals with NCI-H460 lung.
Test [9] has as its system NCI-H23 lung.
In test [10] the test system is EKVX NSCLC.
For test [11], the system named is HCC-2998 colon.
Test [12] concerns A549 NSCLC.
Test [13] deals with TK-10 renal.
In test [14] the test system is SK-OV-3 ovarian.

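Five compound concentrations were applied to cells in 96-well plates for 48 hours; endpoints were derived by simple linear interpolation of the resulting dose-response curve. TGI is the concentration that stops growth completely.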 Where a SMILES comes first, the peptide text is derived from it. [ ]: non-standard residue; d: D form. The star is where a group is joined. NMeV = CN[C@H](C(=O)O)C(C)C; X29 = COc1ccc(CN*)c(OC)c1; Octanoyl = CCCCCCCC(=O)*; dNMeA = CN[C@H](C)C(=O)O A value given as a limit tells only on which side of the number the result lay.

`C[n+]1ccc(/C2=C3\C=CC(=N3)/C(c3cc[n+](C)cc3)=c3/cc/c([nH]3)=C(\c3cc[n+](C)cc3)C3=N/C(=C(/c4cc[n+](C)cc4)C4C=CC2N4)C=C3)cc1`: the TGI in test [1], in [2], in test [3], in test [4], in test [5] and in [6] was above 100 µM each time. Moreover, the TGI in test [7], in test [8], in test [9], in test [10], in test [11] and in test [12] was above 100 µM each time. In addition, the TGI in [13] and in [14] was above 100 µM throughout.

For the molecule `CC(C)(C)OC(=O)N/N=C(/N)Cc1ccc(Cl)cc1`, the TGI in test [1], in test [2], in [3], in test [4], in test [5] and in [6] was above 100 µM throughout. The TGI in test [7], in test [8], in test [10], in test [11], in test [12] and in test [13] was above 100 µM throughout. The molecule also came in with a TGI in test [14] above 100 µM.

For the molecule `COc1cc(/C=C/c2nc(NC(=S)Nc3ccccc3)nnc2C)cc(OC)c1OC`, the TGI in test [1] is 90.1 µM; in test [2], 89 µM; in test [3] it was 66.8 µM; in test [4], above 100 µM; in test [5] it was 48.1 µM; in test [6], 82.4 µM. In addition, the TGI in test [7] is 81.4 µM; in test [8] it was 36.8 µM; in test [9] it was 66.9 µM; in test [10], above 100 µM; in test [11], 26.4 µM; in test [12] it was above 100 µM. In addition, the TGI in [13] and in test [14] was above 100 µM each time.

For the molecule `COc1ccc(C(=O)/C=C/c2ccc(O)c(O)c2)c(OC)c1`, the TGI in [1] is above 100 µM; in [2], 20.4 µM; in [3], 39.2 µM; in test [4], above 38.9 µM; in test [5] it was above 70.3 µM; in [6], 21.2 µM. In addition, the TGI in test [7] was 22.3 µM; in test [8] it was 15.9 µM; in test [9], 18.3 µM; in test [10], above 79.6 µM; in [11] it was 3.4 µM; in test [12], 97.3 µM. Moreover, the figures for the TGI in [13] and in test [14] were 20.2 µM and above 67.9 µM, respectively.

On to `CC1(/C=C/CCSc2ccccc2)CC(=O)C2CC1C2(C)C` (stereo not drawn), for which the TGI in test [1] is above 100 µM; in test [2], 42.1 µM; in test [3], above 100 µM; in test [4] it was above 40.5 µM; in test [5], 77.8 µM; in test [6], above 88.3 µM. For the same molecule, the TGI was above 100 µM in test [7]; 71.6 µM in [8]; above 100 µM in [9]; above 100 µM in test [10]; above 73.5 µM in test [11]; above 100 µM in [12]. Besides, the TGI in test [13] is above 70.1 µM; in test [14], above 100 µM.

In the case of `O=C1C=CC2(C=C1)O[C@H](Cc1ccccc1)[C@@H](Cc1ccccc1)O2`, the TGI in test [1] is above 100 µM; in [2] it was 0.563 µM; in test [3], 0.974 µM; in [4] it was […]; in test [5] it was 0.958 µM; in [6], 16.6 µM. Further, the TGI in [7] is 0.902 µM; in [8], 30.8 µM; in test [9], 3.48 µM; in [10], 1.76 µM; in test [11] it was 11.1 µM; in test [12] it was 18.7 µM. Besides, the TGI stood at 1.66 µM in [13] and 13.7 µM in [14].

`CCCCCCCC(=O)N[C@H](C(=O)N[C@H](C(=O)N(C)[C@H](C(=O)N1CCC[C@H]1C(=O)N(C)[C@H](C)C(=O)NCc1ccc(OC)cc1OC)C(C)C)C(C)C)C(C)C` (Octanoyl-VV[NMeV]P[dNMeA]-X29): the TGI in test [1] was above 100 µM; in test [2], above 61.2 µM; in [3], 46.1 µM; in test [4], above 90.4 µM; in test [5] it was 42.4 µM; in test [6], 12.2 µM. Moreover, the TGI in test [7] is 27.5 µM; in test [8], above 100 µM; in test [9], above 82.4 µM; in test [10], 97.3 µM; in test [11], above 100 µM; in test [12], 99 µM. Besides, the TGI in test [13] and in test [14] was above 100 µM each time.

Consider `Oc1ccc(-c2cc(-c3cc(-c4ccc(O)cc4)no3)on2)cc1`, for which the TGI in [1] is above 100 µM; in test [2] it was above 100 µM; in [3], above 100 µM; in test [4], 9.52 µM; in test [5] it was above 100 µM; in [6], above 100 µM. Besides, the TGI in test [7], in test [8], in test [9], in [10], in test [11] and in test [12] was above 100 µM throughout. For the same molecule, the TGI in test [13] and in [14] was above 100 µM each time.

For `CS(=O)(=O)OCC1CN(S(C)(=O)=O)c2cc(O)ccc21` (stereo not drawn), the TGI in test [1] turned out to be 1.96 µM; in [2], 8.85 µM; in test [3], 3.47 µM; in [4], 6.93 µM; in test [5], 15.1 µM; in [6] it was 7.81 µM. Besides, the TGI came to 12.3 µM in test [7]; 10.5 µM in test [8]; 6.61 µM in test [9]; 16 µM in test [10]; 4.47 µM in test [11]; 21.1 µM in [12]. Moreover, the TGI in test [13] was 6.62 µM.

`CCCCn1c(N)c(-c2nc3ccccc3o2)sc1=S`: the TGI in [1] is 47.9 µM; in test [2], 75.2 µM; in test [3], above 100 µM; in [4], above 100 µM; in [5], 23.3 µM; in [6], 98.8 µM. Moreover, the TGI in test [7] is 43.1 µM; in test [8], 42.6 µM; in test [9] it was 37.6 µM; in test [10], 81.8 µM; in [11], above 100 µM; in [12] it was 29.8 µM. Besides, the TGI came out at 39.3 µM in test [13] and 40.8 µM in test [14].
